Measurements as given in paper PMC5122387 (2016).

Experiments:
Test in all cases: Dox fluorescence quenching
[1] = tested on: MUC1 aptamer (Apt) (DNA, aptamer) GCAGTTGATCCTTTGGATACCCTGG; conditions: not stated; 3 nM Dox; complete quenching at DNA:Dox molar ratio 1; buffer not stated
[2] = tested on: DNA tetrahedron (Td) (DNA, other) ACATTCCTAAGTCTGAAACATTACAGCTTGCTACACGAGAAGAGCCGCCATAGTA/TATCACCAGGCAGTTGACAGTGTAGCAAGCTGTAATAGATGCGAGGGTCCAATAC/TCAACTGCCTGGTGATAAAACGACACTACGTGGGAATCTACTATGGCGGCTCTTC/TTCAGACTTAGGAATGTGCTTCCCACGTAGTGTCGTTTGTATTGGACCCTCGCAT; conditions: not stated for assay; assembled in 50 mM MgCl2; 3 nM Dox; complete quenching at DNA:Dox molar ratio 0.05; Td assembled in 20 mM Tris-HCl, pH 8.0
[3] = tested on: Apt-Td (aptamer-tetrahedron complex) (DNA, other) AGGAAGAGAGAAGGAAGGGAATTTTTACATTCCTAAGTCTGAAACATTACAGCTTGCTACACGAGAAGAGCCGCCATAGTA/TATCACCAGGCAGTTGACAGTGTAGCAAGCTGTAATAGATGCGAGGGTCCAATAC/TCAACTGCCTGGTGATAAAACGACACTACGTGGGAATCTACTATGGCGGCTCTTC/TTCAGACTTAGGAATGTGCTTCCCACGTAGTGTCGTTTGTATTGGACCCTCGCAT/TTCCCTTCCTTCTCTCTTCCTCTCTCGCAGTTGATCCTTTGGATACCCTG; conditions: not stated for assay; assembled in 50 mM MgCl2; 3 nM Dox; complete quenching at DNA:Dox molar ratio 0.04; assembled in 20 mM Tris-HCl, pH 8.0

binding [1]: yes
binding [2]: yes
binding [3]: yes
Structure (SMILES): COc1cccc2c1C(=O)c1c(O)c3c(c(O)c1C2=O)C[C@@](O)(C(=O)CO)C[C@@H]3O[C@H]1C[C@H](N)[C@H](O)[C@H](C)O1
